Here are results for 18 molecules from ChEMBL document CHEMBL4673280, “Discovery and SAR studies of 2-alkyl-3-phenyl-2,4,5,6,7,8-hexahydropyrazolo[3,4-d]azepines as 5-HT inhibitors leading to the identification of a clinical candidate” (Bioorg Med Chem Lett, 2021).

The target in assay [1] is T1, 5-hydroxytryptamine receptor 2C (Homo sapiens, UniProt P28335).
T1 sequence (P28335 whole entry): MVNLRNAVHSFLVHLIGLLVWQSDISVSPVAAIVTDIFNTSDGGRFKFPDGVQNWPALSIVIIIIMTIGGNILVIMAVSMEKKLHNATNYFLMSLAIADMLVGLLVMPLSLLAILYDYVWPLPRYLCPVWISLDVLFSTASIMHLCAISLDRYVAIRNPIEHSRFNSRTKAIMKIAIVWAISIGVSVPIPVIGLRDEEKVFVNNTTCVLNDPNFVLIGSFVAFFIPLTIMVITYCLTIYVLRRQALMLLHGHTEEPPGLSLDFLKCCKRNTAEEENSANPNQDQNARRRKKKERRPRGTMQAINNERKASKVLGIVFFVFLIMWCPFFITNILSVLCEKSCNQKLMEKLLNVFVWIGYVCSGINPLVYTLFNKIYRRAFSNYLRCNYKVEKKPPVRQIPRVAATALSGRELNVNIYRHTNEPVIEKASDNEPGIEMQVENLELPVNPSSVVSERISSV
Description: Displacement of [3H]-ketanserin from human 5-HT2C receptor by competitive radioligand binding assay. (In general: Displacement assays read how much labelled ligand stays bound in the presence of the test substance.)

For assay [2], the target named is 5-hydroxytryptamine receptor 2B (Homo sapiens, UniProt P41595). Description: Displacement of [3H]-ketanserin from human 5-HT2B receptor by competitive radioligand binding assay.
Assay [3] has as its target 5-hydroxytryptamine receptor 2A (Homo sapiens, UniProt P28223). Description: Displacement of [3H]-ketanserin from human 5-HT2A receptor by competitive radioligand binding assay.
In assay [4] the target is 5-hydroxytryptamine receptor 7 (Rattus norvegicus, UniProt P32305). Kind of assay: Displacement of [3H]-CT from rat 5-HT7 receptor expressed in HEK293 cells by competitive radioligand binding assay. It counts as cell-based.
In assay [5] the target is T2, Adrenergic receptor alpha-1 (Rattus norvegicus, UniProt P15823+P23944+P43140).
T2 sequence (P15823 whole entry): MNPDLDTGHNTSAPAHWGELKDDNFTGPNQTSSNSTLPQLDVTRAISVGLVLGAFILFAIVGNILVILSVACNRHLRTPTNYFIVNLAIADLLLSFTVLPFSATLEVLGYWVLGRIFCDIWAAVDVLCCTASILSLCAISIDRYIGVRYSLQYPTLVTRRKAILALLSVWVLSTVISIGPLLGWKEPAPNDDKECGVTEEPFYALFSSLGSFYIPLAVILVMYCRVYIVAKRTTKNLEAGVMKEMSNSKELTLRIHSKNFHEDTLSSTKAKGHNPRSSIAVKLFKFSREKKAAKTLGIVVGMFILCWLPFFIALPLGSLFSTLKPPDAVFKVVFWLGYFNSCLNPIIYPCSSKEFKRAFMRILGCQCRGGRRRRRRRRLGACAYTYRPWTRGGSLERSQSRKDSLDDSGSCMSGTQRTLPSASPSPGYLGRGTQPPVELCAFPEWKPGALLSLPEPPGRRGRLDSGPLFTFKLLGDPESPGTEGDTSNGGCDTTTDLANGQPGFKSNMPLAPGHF
T2 sequence (P23944 whole entry): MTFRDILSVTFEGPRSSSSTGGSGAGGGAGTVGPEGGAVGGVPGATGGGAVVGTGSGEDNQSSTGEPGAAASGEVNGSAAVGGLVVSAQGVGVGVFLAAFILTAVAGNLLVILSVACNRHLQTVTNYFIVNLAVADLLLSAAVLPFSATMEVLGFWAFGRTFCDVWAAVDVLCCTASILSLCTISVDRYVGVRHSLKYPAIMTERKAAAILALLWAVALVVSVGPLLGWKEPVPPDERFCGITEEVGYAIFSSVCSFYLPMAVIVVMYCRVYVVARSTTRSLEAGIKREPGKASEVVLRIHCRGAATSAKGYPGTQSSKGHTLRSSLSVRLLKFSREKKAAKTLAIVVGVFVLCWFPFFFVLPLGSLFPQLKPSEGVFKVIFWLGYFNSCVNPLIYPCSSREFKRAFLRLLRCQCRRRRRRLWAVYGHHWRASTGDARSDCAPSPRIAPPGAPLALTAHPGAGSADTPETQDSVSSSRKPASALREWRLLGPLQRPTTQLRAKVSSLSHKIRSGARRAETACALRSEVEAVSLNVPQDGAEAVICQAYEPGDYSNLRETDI
T2 sequence (P43140 whole entry): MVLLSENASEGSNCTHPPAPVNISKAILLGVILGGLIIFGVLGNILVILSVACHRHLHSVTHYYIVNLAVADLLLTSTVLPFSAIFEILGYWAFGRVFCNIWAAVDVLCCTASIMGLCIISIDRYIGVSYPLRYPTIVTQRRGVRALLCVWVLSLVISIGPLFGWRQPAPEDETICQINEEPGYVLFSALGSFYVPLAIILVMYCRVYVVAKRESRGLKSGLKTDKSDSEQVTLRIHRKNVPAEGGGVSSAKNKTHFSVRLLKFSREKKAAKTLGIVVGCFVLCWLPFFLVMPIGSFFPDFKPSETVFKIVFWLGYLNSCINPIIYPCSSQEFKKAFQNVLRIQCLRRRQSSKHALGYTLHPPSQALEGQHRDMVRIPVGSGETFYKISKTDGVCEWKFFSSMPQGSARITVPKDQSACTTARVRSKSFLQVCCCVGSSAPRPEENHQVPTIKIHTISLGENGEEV
Kind of assay: Displacement of […] from alpha1 adrenergic receptor in rat cortex membrane incubated for 60 mins by competitive radioligand binding assay. It counts as cell membranes.

Sequence of 5-hydroxytryptamine receptor 2A (P28223 whole entry): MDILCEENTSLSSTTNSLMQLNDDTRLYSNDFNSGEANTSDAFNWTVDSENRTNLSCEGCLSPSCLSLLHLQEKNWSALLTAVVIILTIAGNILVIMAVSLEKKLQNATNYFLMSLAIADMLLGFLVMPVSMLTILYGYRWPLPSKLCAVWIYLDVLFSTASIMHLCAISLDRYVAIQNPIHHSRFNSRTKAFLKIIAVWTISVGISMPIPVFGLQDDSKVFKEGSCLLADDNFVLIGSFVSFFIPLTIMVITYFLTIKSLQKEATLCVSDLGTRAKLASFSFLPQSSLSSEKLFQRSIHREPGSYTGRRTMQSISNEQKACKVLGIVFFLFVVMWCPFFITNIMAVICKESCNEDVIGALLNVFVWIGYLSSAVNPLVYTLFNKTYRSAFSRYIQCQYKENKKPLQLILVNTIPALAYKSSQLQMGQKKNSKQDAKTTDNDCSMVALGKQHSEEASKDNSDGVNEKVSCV
Sequence of 5-hydroxytryptamine receptor 2B (P41595 whole entry): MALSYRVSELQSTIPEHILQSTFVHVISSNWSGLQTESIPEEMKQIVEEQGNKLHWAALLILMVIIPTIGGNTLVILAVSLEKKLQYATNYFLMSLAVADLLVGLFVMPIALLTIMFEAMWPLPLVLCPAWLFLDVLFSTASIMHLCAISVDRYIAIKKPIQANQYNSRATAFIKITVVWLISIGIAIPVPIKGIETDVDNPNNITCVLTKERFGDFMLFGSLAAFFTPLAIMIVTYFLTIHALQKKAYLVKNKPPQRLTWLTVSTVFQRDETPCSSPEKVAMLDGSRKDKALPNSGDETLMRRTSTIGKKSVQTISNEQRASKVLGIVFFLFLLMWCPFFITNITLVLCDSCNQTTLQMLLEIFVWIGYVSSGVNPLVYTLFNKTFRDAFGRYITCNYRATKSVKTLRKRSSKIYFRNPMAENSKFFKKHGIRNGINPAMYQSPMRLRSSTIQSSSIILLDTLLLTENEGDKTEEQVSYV
Sequence of 5-hydroxytryptamine receptor 7 (P32305 whole entry): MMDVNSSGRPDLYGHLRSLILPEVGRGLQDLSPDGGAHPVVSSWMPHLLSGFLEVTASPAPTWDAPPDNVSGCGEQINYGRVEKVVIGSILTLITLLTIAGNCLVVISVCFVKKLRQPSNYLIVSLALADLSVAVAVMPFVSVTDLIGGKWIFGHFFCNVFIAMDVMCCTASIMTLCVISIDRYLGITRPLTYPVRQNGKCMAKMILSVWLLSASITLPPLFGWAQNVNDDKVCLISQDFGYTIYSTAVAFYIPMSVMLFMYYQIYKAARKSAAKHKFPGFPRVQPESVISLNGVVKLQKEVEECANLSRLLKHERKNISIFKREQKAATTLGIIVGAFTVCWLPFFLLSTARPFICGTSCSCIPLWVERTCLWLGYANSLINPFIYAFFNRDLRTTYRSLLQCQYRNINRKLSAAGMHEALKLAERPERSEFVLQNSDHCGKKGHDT

For `CCn1nc2c(c1-c1ccccc1)CCNCC2`, the Ki in assay [1] worked out at 1200 nM; in assay [2], 75 nM; in assay [3], 60 nM; in assay [4] it was 140 nM.
For the molecule `CNc1ccc(-c2c3c(nn2C(C)C)CCNCC3)cc1`, the Ki in assay [5] turned out to be 16 nM; in assay [1], 210 nM; in assay [2], 24 nM; in assay [3] it was 3 nM; in assay [4], 40 nM.
In the case of `CC(C)n1nc2c(c1-c1ccc(Cl)cc1)CCNCC2`, the Ki in assay [5] amounted to 20 nM; in assay [2], 1 nM; in assay [3] it was 1 nM; in assay [4], 9 nM.
In the case of `c1ccc(-c2c3c(nn2C2CC2)CCNCC3)cc1`, the Ki was determined as 600 nM in assay [5]; 30 nM in assay [1]; 20 nM in assay [2]; 30 nM in assay [3]; 20 nM in assay [4].
`Cc1ccc(-c2c3c(nn2C(C)C)CCNCC3)cc1`: the Ki in assay [5] worked out at 4 nM; in assay [2], 2 nM; in assay [3] it was 1 nM.
As to `CC(C)n1nc2c(c1-c1ccc(Cl)cc1Cl)CCNCC2`, the inhibition constant (Ki) in assay [1] is 220 nM; in assay [2], 43 nM; in assay [3] it was 15 nM; in assay [4], 400 nM.
Regarding `CC(C)n1nc2c(c1-c1ccc(Cl)c(Cl)c1)CCNCC2`, the Ki was found to be 910 nM in assay [1], 31 nM in assay [2], 39 nM in assay [3] and 4000 nM in assay [4].
`CC(C)n1nc2c(c1-c1ccc(C#N)cc1)CCNCC2`: the Ki in assay [5] stood at 240 nM; in assay [1], 390 nM; in assay [3] it was 5 nM; in assay [4] it was 90 nM.
Consider `Clc1ccc(-c2nn(Cc3ccccc3)c3c2CCNCC3)cc1` [JNJ-18038683 FREE BASE], for which the Ki in assay [3] amounted to 100 nM.
For the molecule `CC(C)n1nc2c(c1-c1ccc(OC(F)(F)F)cc1)CCNCC2`, the inhibition constant Ki turned out to be 990 nM in assay [1], 20 nM in assay [2], 40 nM in assay [3] and 5000 nM in assay [4].
Consider `Fc1ccc(-c2c3c(nn2C2CCC2)CCNCC3)cc1`, for which the Ki came to 220 nM in assay [5], 45 nM in assay [1], 4 nM in assay [2] and 1 nM in assay [3].
Take `c1ccc(-c2c3c(nn2-c2ccccc2)CCNCC3)cc1`: the Ki in assay [5] was 10000 nM; in assay [1], 9000 nM; in assay [2], 15 nM; in assay [3], 600 nM; in assay [4] it was 150 nM.
With `CC(C)n1nc2c(c1-c1ccc(C(F)(F)F)cc1)CCNCC2`, the Ki came to 130 nM in assay [5], 5 nM in assay [2], 2 nM in assay [3] and 15 nM in assay [4].
As for `COc1ccc(-c2c3c(nn2C(C)C)CCNCC3)cc1`, the results for the Ki in assay [2], in assay [3] and in assay [4] were 1 nM, 3 nM and 18 nM, respectively.
With `Fc1ccc(-c2c3c(nn2C2CC2)CCNCC3)cc1`, in assay [3], affinity was put at a Ki of 6 nM.
As to `c1ccc(-c2c3c(nn2C2CCC2)CCNCC3)cc1`, the inhibition constant (Ki) in assay [5] is 500 nM; in assay [2] it was 3 nM; in assay [3], 3 nM.
As to `CC(C)n1nc2c(c1-c1ccccc1)CCNCC2`, the Ki amounted to 530 nM in assay [5]; 130 nM in assay [1]; 19 nM in assay [2]; 24 nM in assay [3]; 28 nM in assay [4].
Take `CC(C)(C)n1nc2c(c1-c1ccccc1)CCNCC2`: the inhibitory constant (Ki) in assay [1] came out at 85 nM; in assay [2] it was 43 nM; in assay [3], 19 nM.

As a reminder, the Ki is the equilibrium dissociation constant of an inhibitor or competing ligand from its target.
